# Test results taken from ChEMBL document CHEMBL1641539 (Bioorg Med Chem Lett, 2011).
# Key:
# [1] = target: Protein kinase C beta type (Homo sapiens) (UniProt P05771); experiment: Inhibition of human PKCbeta1 at 10 uM after 60 mins by TR-FRET assay; values are per cent of control
# [2] = system: Tyrosine-protein kinase ABL1 (Homo sapiens), P00519 [Y253F]; experiment: Inhibition of human Abl Y253F mutant at 10 uM after 60 mins by TR-FRET assay; values are per cent of control
# [3] = target: Interleukin-1 receptor-associated kinase 1 (Homo sapiens) (UniProt P51617); experiment: Inhibition of human IRAK1 at 10 uM after 60 mins by TR-FRET assay; conditions: values are per cent of control
# [4] = target: Death-associated protein kinase 1 (Homo sapiens) (UniProt P53355); experiment: Inhibition of human DAPK1 at 10 uM after 60 mins by TR-FRET assay; values are per cent of control
# [5] = target: Serine/threonine-protein kinase pim-1 (Homo sapiens) (UniProt P11309); experiment: Inhibition of human Pim-1 at 10 uM after 60 mins by TR-FRET assay; values are per cent of control
# Chain of Serine/threonine-protein kinase pim-1 (Homo sapiens) (P11309 whole entry, looked up): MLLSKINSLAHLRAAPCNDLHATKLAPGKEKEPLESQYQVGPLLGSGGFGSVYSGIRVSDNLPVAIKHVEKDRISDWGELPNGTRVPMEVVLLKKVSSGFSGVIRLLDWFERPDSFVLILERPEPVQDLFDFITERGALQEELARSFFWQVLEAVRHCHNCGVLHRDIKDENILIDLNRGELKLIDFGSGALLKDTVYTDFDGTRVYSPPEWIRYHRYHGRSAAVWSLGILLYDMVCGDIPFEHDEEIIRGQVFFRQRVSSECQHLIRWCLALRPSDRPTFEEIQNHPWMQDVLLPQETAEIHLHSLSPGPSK
# [6] = target: CDK9/cyclin T1 (Homo sapiens) (UniProt O60563+P50750); experiment: Inhibition of human CDK9/cyclin T1 at 10 uM after 60 mins by TR-FRET assay; values are per cent of control
# [7] = target: NUAK family SNF1-like kinase 1 (Homo sapiens) (UniProt O60285); experiment: Inhibition of human ARK5 at 10 uM after 60 mins by TR-FRET assay; values are per cent of control
# [8] = target: Tyrosine-protein kinase Yes (Homo sapiens) (UniProt P07947); experiment: Inhibition of human Yes at 10 uM after 60 mins by TR-FRET assay; values are per cent of control
# [9] = target: Calcium/calmodulin-dependent protein kinase type II subunit delta (Homo sapiens) (UniProt Q13557); experiment: Inhibition of human CaMK2delta at 10 uM after 60 mins by TR-FRET assay; values are per cent of control
# [10] = target: Ephrin type-A receptor 1 (Homo sapiens) (UniProt P21709); experiment: Inhibition of human EphA1 at 10 uM after 60 mins by TR-FRET assay; values are per cent of control
# Chain of Ephrin type-A receptor 1 (Homo sapiens) (P21709 whole entry): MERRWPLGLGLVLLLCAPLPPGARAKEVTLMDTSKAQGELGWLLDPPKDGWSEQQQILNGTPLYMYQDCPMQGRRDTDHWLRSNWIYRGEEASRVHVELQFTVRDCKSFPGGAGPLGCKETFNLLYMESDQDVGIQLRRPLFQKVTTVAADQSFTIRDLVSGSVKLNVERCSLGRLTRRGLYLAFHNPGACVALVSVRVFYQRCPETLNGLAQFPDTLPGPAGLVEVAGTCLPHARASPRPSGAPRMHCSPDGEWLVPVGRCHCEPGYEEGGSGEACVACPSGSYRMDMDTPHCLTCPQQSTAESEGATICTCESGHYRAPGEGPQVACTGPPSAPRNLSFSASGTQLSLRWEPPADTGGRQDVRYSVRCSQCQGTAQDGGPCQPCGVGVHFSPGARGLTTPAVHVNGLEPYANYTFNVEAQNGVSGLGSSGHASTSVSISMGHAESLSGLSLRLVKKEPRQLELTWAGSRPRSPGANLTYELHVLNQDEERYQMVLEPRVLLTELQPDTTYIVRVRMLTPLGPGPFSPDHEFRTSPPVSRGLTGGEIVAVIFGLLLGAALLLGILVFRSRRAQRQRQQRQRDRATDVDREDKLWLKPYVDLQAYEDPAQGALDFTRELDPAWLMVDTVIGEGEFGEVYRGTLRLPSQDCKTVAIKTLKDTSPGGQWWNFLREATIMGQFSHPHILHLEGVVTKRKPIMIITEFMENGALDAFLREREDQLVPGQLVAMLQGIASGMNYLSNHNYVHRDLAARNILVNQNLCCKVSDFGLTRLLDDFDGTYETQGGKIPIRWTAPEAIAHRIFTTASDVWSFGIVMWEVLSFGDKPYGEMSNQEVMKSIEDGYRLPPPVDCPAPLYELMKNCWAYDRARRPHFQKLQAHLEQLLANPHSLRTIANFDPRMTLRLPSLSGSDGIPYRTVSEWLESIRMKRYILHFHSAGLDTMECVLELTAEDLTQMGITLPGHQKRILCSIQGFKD
# [11] = target: Serine/threonine-protein kinase PAK 3 (Homo sapiens) (UniProt O75914); experiment: Inhibition of human PAK3 at 10 uM after 60 mins by TR-FRET assay; values are per cent of control
# [12] = target: RAC-beta serine/threonine-protein kinase (Homo sapiens) (UniProt P31751); experiment: Inhibition of human PKBbeta at 10 uM after 60 mins by TR-FRET assay; values are per cent of control
# [13] = target: Homeodomain-interacting protein kinase 1 (Homo sapiens) (UniProt Q86Z02); experiment: Inhibition of human HIPK1 at 10 uM after 60 mins by TR-FRET assay; values are per cent of control
# Chain of Homeodomain-interacting protein kinase 1 (Homo sapiens) (Q86Z02 whole entry, looked up): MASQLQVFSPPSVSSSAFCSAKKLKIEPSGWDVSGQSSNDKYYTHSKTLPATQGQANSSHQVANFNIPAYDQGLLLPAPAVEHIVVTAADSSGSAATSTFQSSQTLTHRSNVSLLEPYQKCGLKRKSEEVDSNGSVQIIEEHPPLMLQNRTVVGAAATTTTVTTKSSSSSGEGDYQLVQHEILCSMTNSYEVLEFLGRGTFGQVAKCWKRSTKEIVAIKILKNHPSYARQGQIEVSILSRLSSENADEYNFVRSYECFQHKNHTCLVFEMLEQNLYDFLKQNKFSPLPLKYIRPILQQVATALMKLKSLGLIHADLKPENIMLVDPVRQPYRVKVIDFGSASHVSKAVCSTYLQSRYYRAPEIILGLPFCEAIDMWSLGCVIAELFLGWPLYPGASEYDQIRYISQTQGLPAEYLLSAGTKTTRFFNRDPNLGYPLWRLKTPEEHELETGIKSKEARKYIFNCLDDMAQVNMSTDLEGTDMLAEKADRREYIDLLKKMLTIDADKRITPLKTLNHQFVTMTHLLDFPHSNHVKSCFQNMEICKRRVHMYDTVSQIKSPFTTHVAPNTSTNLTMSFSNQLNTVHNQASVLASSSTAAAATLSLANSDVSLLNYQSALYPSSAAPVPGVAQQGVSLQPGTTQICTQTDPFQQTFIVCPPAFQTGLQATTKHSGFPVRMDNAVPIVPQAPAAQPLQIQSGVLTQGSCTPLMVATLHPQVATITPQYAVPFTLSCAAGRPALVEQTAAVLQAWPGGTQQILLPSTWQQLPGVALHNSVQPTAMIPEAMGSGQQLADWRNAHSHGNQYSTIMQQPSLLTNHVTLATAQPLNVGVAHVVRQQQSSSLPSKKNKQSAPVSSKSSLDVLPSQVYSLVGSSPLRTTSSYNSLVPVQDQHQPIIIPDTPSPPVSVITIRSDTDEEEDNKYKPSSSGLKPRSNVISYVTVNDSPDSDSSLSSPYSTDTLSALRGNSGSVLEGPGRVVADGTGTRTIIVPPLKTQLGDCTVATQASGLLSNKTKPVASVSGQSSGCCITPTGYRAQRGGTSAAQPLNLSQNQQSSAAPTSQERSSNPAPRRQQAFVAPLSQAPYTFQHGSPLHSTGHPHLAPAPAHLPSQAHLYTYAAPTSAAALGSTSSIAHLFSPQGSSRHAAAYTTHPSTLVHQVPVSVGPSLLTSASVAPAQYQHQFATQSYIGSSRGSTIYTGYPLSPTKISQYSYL
# Rattus norvegicus = organism: Rattus norvegicus; experiment: Inhibition of rat CaMK2 at 10 uM after 60 mins by TR-FRET assay; values are per cent of control
# [14] = target: High affinity nerve growth factor receptor (Homo sapiens) (UniProt P04629); experiment: Inhibition of human TrkA at 10 uM after 60 mins by TR-FRET assay; conditions: values are per cent of control
# [15] = target: Proto-oncogene tyrosine-protein kinase receptor Ret (Homo sapiens) (UniProt P07949); experiment: Inhibition of human Ret at 10 uM after 60 mins by TR-FRET assay; values are per cent of control
# [16] = target: Serine/threonine-protein kinase PLK3 (Homo sapiens) (UniProt Q9H4B4); experiment: Inhibition of human Plk3 at 10 uM after 60 mins by TR-FRET assay; values are per cent of control
# [17] = target: Protein kinase C epsilon type (Homo sapiens) (UniProt Q02156); experiment: Inhibition of human PKCepsilon at 10 uM after 60 mins by TR-FRET assay; values are per cent of control
# Chain of Protein kinase C epsilon type (Homo sapiens) (Q02156 whole entry, canonical isoform): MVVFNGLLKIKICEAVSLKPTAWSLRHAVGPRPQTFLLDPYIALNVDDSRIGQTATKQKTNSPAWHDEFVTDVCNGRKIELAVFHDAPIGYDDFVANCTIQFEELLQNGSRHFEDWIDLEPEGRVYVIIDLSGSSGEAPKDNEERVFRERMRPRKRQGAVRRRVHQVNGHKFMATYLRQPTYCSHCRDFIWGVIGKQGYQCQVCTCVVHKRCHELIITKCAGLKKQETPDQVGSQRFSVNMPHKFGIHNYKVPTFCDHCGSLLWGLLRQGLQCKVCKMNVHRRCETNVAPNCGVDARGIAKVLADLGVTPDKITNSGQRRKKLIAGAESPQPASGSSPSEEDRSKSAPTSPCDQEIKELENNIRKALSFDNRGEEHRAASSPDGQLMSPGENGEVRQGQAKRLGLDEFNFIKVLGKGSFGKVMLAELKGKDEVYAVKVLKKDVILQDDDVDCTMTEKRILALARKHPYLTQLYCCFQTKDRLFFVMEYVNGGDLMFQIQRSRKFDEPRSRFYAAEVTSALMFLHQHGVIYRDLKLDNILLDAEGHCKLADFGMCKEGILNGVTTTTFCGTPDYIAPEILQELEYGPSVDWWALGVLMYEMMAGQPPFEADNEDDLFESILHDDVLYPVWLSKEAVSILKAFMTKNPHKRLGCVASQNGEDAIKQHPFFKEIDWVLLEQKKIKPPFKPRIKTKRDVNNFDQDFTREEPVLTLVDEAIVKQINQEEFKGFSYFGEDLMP
# [18] = target: Casein kinase I isoform delta (Homo sapiens) (UniProt P48730); experiment: Inhibition of human CK1d at 10 uM after 60 mins by TR-FRET assay; values are per cent of control
# [19] = target: cAMP-dependent protein kinase catalytic subunit PRKX (Homo sapiens) (UniProt P51817); experiment: Inhibition of human PrKX at 10 uM after 60 mins by TR-FRET assay; values are per cent of control
# [20] = target: Tyrosine-protein kinase ABL2 (Homo sapiens) (UniProt P42684); experiment: Inhibition of human Arg at 10 uM after 60 mins by TR-FRET assay; values are per cent of control
# [21] = target: Vascular endothelial growth factor receptor 2 (Homo sapiens) (UniProt P35968); experiment: Inhibition of human KDR at 10 uM after 60 mins by TR-FRET assay; values are per cent of control
# [22] = target: Cyclin-dependent kinase 5/CDK5 activator 1 (Homo sapiens) (UniProt Q00535+Q15078); experiment: Inhibition of human CDK5/p35 at 10 uM after 60 mins by TR-FRET assay; values are per cent of control
# Chain of Cyclin-dependent kinase 5/CDK5 activator 1 (Homo sapiens) (Q00535 whole entry): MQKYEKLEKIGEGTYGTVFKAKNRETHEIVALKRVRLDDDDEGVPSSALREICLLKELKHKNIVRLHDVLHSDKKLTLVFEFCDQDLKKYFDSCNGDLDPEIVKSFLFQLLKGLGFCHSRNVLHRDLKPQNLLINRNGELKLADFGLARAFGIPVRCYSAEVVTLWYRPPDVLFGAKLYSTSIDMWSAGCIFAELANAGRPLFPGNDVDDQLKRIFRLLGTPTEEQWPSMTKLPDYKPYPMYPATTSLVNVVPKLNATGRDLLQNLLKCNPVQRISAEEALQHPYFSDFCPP
# Chain of Cyclin-dependent kinase 5/CDK5 activator 1 (Homo sapiens) (Q15078 99-307 partner limits assumed): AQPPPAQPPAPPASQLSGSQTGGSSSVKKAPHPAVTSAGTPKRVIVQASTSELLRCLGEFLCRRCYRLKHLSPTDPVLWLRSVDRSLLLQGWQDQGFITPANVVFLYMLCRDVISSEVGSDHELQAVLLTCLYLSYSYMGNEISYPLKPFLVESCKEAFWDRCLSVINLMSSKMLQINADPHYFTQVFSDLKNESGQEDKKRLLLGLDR
# [23] = target: Serine/threonine-protein kinase Sgk1 (Homo sapiens) (UniProt O00141); experiment: Inhibition of human SGK at 10 uM after 60 mins by TR-FRET assay; values are per cent of control
# Chain of Serine/threonine-protein kinase Sgk1 (Homo sapiens) (O00141 whole entry): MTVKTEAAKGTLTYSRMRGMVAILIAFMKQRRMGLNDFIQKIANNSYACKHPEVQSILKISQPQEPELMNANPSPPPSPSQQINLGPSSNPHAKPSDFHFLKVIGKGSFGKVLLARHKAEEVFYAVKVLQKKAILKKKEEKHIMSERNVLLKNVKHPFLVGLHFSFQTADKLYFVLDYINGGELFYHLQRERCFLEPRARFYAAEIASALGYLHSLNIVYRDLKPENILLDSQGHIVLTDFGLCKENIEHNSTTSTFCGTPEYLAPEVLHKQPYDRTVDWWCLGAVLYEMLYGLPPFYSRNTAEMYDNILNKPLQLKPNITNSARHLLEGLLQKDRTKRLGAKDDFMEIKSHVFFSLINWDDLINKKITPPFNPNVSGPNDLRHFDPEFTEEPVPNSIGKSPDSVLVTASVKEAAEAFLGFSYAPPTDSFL
# [24] = target: Tyrosine-protein kinase ABL2 (Mus musculus) (UniProt Q4JIM5); experiment: Inhibition of mouse Arg at 10 uM after 60 mins by TR-FRET assay; values are per cent of control
# [25] = target: Ribosomal protein S6 kinase alpha-1 (Rattus norvegicus) (UniProt Q63531); experiment: Inhibition of rat Rsk1 at 10 uM after 60 mins by TR-FRET assay; values are per cent of control
# [26] = target: Mitogen-activated protein kinase 12 (Homo sapiens) (UniProt P53778); experiment: Inhibition of human SAPK3 at 10 uM after 60 mins by TR-FRET assay; conditions: values are per cent of control
# [27] = target: Tyrosine-protein kinase SYK (Homo sapiens) (UniProt P43405); experiment: Inhibition of human Syk at 10 uM after 60 mins by TR-FRET assay; conditions: values are per cent of control
# Chain of Protein kinase C beta type (Homo sapiens) (P05771 2-671 limits assumed): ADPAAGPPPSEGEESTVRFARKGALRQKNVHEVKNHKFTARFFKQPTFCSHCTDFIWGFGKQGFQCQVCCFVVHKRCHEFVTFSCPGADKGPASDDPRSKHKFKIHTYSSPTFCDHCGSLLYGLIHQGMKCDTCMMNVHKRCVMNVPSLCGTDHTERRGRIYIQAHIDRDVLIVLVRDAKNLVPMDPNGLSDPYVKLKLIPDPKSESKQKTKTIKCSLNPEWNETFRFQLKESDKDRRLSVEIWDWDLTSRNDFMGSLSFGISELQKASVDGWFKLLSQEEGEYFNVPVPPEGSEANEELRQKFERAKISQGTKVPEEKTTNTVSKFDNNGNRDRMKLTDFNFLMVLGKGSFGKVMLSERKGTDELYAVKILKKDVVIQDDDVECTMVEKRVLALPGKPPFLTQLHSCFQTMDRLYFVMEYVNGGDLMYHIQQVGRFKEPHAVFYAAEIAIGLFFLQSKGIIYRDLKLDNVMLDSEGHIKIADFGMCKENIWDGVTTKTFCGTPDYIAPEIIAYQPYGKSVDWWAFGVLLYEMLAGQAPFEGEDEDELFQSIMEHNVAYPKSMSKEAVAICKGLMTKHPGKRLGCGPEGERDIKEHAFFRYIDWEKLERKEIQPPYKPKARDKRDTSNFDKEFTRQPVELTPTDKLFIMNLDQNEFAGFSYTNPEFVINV
structure (smiles),measurement,setting,value
S=c1[nH]nc(-c2ccncc2)n1-c1ccc2ccccc2c1,residual activity,[1],109%
same,residual activity,[2],105%
same,residual activity,[3],113%
same,residual activity,[4],108%
same,residual activity,[5],96%
same,residual activity,[6],110%
same,residual activity,[7],103%
same,residual activity,[8],107%
same,residual activity,[9],106%
same,residual activity,[10],103%
same,residual activity,[11],99%
same,residual activity,[12],110%
same,residual activity,[13],110%
same,residual activity,Rattus norvegicus,110%
same,residual activity,[14],116%
same,residual activity,[15],108%
same,residual activity,[16],106%
same,residual activity,[17],100%
same,residual activity,[18],96%
same,residual activity,[19],134%
same,residual activity,[20],109%
same,residual activity,[21],105%
same,residual activity,[22],96%
same,residual activity,[23],109%
same,residual activity,[24],101%
same,residual activity,[25],103%
same,residual activity,[26],110%
same,residual activity,[27],116%
